Reference: the supplement of paper PMC10307832

Experiments:
Experiment in all cases: relative viability (nuclei count vs DMSO), 5 days (fraction); higher = more cells survive
[1] = compound: C1=CC2=NC=CN=C2C=C1/C=C/3\C(=O)NC(=O)S3
Outline: (§1)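 Lung cancer cell lines received five library-drug doses (not always all listed) spaced by √10, pinned on vehicle-anchored 1536-well plates after an overnight stay at 37 °C. Five days later, with no medium change, nuclei were Hoechst-stained, imaged at 4× and counted with MetaXpress. Viability is treated-well nuclei relative to vehicle-well nuclei, as a median across plates. Passing plates had control CV below 25% and at least one doubling.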

[2] = compound: CCN1CCN(c2ccc(Nc3cc(N(C)C(=O)Nc4c(Cl)c(OC)cc(OC)c4Cl)ncn3)cc2)CC1 [BGJ398]
Outline: as §1

[3] = compound: C1=CC2=NC=CN=C2C=C1/C=C/3\C(=O)NC(=O)S3 + CC1(C)CCC(c2ccc(Cl)cc2)=C(CN2CCN(c3ccc(C(=O)NS(=O)(=O)c4ccc(N[C@H](CCN5CCOCC5)CSc5ccccc5)c(S(=O)(=O)C(F)(F)F)c4)cc3)CC2)C1 [Navitoclax] (partner 0.5 µM)
Outline: (§2)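 Relative viability was taken as the ratio of nuclei in treated wells to nuclei in vehicle wells. Lung cancer cell lines in 1536-well plates received compounds by pin tool one day after seeding, either one drug alone or a fixed anchor-drug dose plus five library-drug doses (not always all listed) in √10 steps. Nuclei were counted on 4× images after 5 days of treatment, and values are medians of duplicate plates.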

[4] = compound: CCN1CCN(c2ccc(Nc3cc(N(C)C(=O)Nc4c(Cl)c(OC)cc(OC)c4Cl)ncn3)cc2)CC1 [BGJ398] + N=C(N)NC(=N)NCCc1ccccc1 [Phenformin] (partner 250 µM)
Outline: as §2

Cell Line	relative viability ([1]; 0.02 µM)	relative viability ([1]; 0.06325 µM)	relative viability ([1]; 0.2 µM)	relative viability ([1]; 0.6325 µM)	relative viability ([1]; 2 µM)	relative viability ([2]; 0.01 µM)	relative viability ([2]; 0.03162 µM)	relative viability ([2]; 0.1 µM)	relative viability ([2]; 0.3162 µM)	relative viability ([2]; 1 µM)	relative viability ([3]; first compound 0.02 µM)	relative viability ([3]; first compound 0.06325 µM)	relative viability ([3]; first compound 0.2 µM)	relative viability ([3]; first compound 0.6325 µM)	relative viability ([3]; first compound 2 µM)	relative viability ([4]; first compound 0.01 µM)	relative viability ([4]; first compound 0.03162 µM)	relative viability ([4]; first compound 0.1 µM)	relative viability ([4]; first compound 0.3162 µM)	relative viability ([4]; first compound 1 µM)
LK-2	1.02	1.06	1.14	0.896	0.566	0.867	0.776	0.638	0.399	0.263	0.791	1.03	1.04	0.684	0.548	0.268	0.295	0.255	0.18	0.271
201T	0.823	1.05	1.03	0.954	0.818	1.18	0.93	0.96	0.95	0.845	1.18	1.26	1.19	1.21	1.18	0.45	0.444	0.457	0.382	0.386
HCC-44	0.895	1.03	0.991	0.965	0.745	0.998	0.986	0.987	0.993	0.826	0.969	1.02	0.946	1.02	0.892	0.213	0.349	0.193	0.195	0.161
NCI-H596	1.06	0.938	1.1	0.834	0.867	1.13	0.931	0.978	0.92	0.8	0.902	0.96	0.977	0.883	0.951	0.597	0.724	0.842	0.722	0.66
H3255	0.984	1.02	1.01	0.934	0.946	0.945	–	1	0.843	0.999	0.533	0.421	0.581	0.449	0.498	0.338	–	0.371	0.231	0.35
NCI-H647	0.959	1.13	1.08	0.84	0.938	0.869	1.07	1.03	0.867	0.799	0.945	1.36	1.08	1.14	1.25	0.454	0.514	0.498	0.455	0.411
NCI-H2023	0.94	0.966	1.02	0.886	0.773	0.872	0.998	0.997	0.977	1.01	1.01	1.11	1.02	1.02	0.978	0.409	0.483	0.434	0.398	0.371
NCI-H23	1.01	1.21	1.1	0.876	0.753	0.994	0.974	0.966	0.937	0.979	0.714	1.18	0.828	0.868	0.635	0.688	0.904	0.811	0.761	0.756
NCI-H1944	0.902	1.07	1.09	0.871	0.77	0.869	0.985	0.973	0.873	0.946	1.02	1.05	1.08	0.95	1.04	0.198	0.195	0.237	0.188	0.177
NCI-H1793	0.81	0.729	1.02	0.739	0.736	0.877	0.644	0.927	0.698	0.808	0.509	0.439	0.496	0.36	0.83	0.361	0.351	0.387	0.334	0.293
NCI-H520	1.03	1.14	1.06	0.855	0.927	0.954	0.954	0.758	0.312	0.4	1.15	1.49	1.08	1.04	1.01	0.532	0.481	0.379	0.189	0.242
A549	0.98	0.999	1.05	0.902	0.697	0.932	0.917	1.03	0.876	0.996	1.24	1.43	1.22	1.02	1.11	0.12	0.217	0.154	0.125	0.11
NCI-H460	0.933	0.964	0.999	0.939	0.942	1.02	1.04	1.11	0.984	0.988	1.03	1.24	1.19	1.02	1.11	0.491	0.565	0.622	0.472	0.465
EKVX	0.927	0.885	0.987	0.936	0.786	0.865	0.942	1.08	0.871	0.986	0.931	0.865	0.916	0.957	0.822	0.216	0.211	0.235	0.234	0.209
EPLC-272H	0.939	0.902	0.98	0.799	0.733	0.898	0.899	0.911	0.785	0.778	1.08	1.03	1.41	1.01	1.1	0.243	0.283	0.272	0.247	0.38
NCI-H1395	1.05	0.985	1.06	0.884	0.899	0.853	0.946	0.847	0.589	0.483	1.13	1.42	1.21	1.17	1.02	0.436	0.433	0.368	0.393	0.373
